Measured values reported in EP0117260A1, “4-Aminobutyric acid derivatives, a process for the preparation thereof and a pharmaceutical composition containing said derivatives” (priority 1983, dated 1984).

Legend:
[1] = Maximum tolerance (death observed 48 hours after administration); conditions: mouse, in vivo; mice; dose just smaller than the dose inducing death, observed 48 hours after the administration
[2] = Level of hopanthenic acid in blood plasma after oral administration (GC-MS); type: in vivo, SD-male rats; conditions: rat, 389.4 umol/kg, 389.4 µmole/kg, rats, n=4, read-out: Level of hopanthenic acid in the blood plasma (average ± S.D.)
Method: SD-male rats, weighing about 200 g, 7 weeks age, having been fasted overnight (one group: 4 rats) were used. To each rat was orally administered a suspension (2 ml) of a test compound in a 0.5 % carboxymethyl cellulose solution with a stomach sonde (dose of test compound: […], corresponding to 100 mg/kg of calcium hopanthenate).
One or two hours after the aministration, the rats were killed by cutting whole carotid arteries, and the blood was collected. The blood of each rat was centrifuged (2,800 r.p.m., 15 minutes) to separate blood plasma. Concentration of hopanthenic acid in the blood plasma (0.1 ml) was measured by gas chromatography and mass spectrometry.

[3] = Level of hopanthenic acid in the cerebrum after oral administration (GC-MS); type: in vivo, SD-male rats; conditions: rat, 389.4 umol/kg, 389.4 µmole/kg, rats, n=4, read-out: Level of hopanthenic acid in the cerebrum (average ± S.D.)
Method: SD-male rats, weighing about 200 g, 7 weeks age, having been fasted overnight (one group: 4 rats) were used. To each rat was orally administered a suspension (2 ml) of a test compound in a 0.5 % carboxymethyl cellulose solution with a stomach sonde (dose of test compound: 389.4 #mole/kg, corresponding to 100 mg/kg of calcium hopanthenate). Two or three hours after the administration, the cerebrum was taken out and washed with physiological saline solution. To the cerebrum was added 9 times volume of water, and the mixture was homogenated with a homogenizer for one minute under ice-cooling and then centrifuged at 10,000 r.p.m. at 4°C for one hour. Concentration of hopanthenic acid in the supernatant (1 ml, corresponding to 0.1 g of the cerebrum) was measured by gas chromatography and mass spectrometry. The test compounds were the same as used in Experiment 1.

[4] = Two hours after the administration

| Compound | MTD at 48 h [1] [mg/kg] | concentration at 1 h ([2]; One hour after the administration) [ng/mL] | concentration at 2 h [2, 4] [ng/mL] | concentration at 3 h ([3]; Three hours after the administration) [ng/g] | concentration at 2 h [3, 4] [ng/g] |
| --- | --- | --- | --- | --- | --- |
| CC(C)CC(=O)OCC(C)(C)[C@@H](O)C(=O)NCCCC(=O)O [Compound No. 2, D-4-[N-(4-Isovaleryloxy-3,3-dimethyl-2-hydroxy-n-butyryl)-amino]-n-butyric acid] | > 2000 |  |  |  |  |
| CC(C)(CO)[C@@H](O)C(=O)NCCCC(=O)O [Control, Calcium D-4-[N-(2,4-dihydroxy-3,3-dimethyl-n-butyryl)amino]-n-butyrate] |  | 19400 ± 1900 | 14200 ± 1600 | 370 ± 70 | 700 ± 110 |
| CC(C)C(=O)OCC(C)(C)[C@@H](O)C(=O)NCCCC(=O)O | > 2000 |  |  |  |  |
